Values of other authors, collected in paper PMC9851200, “Multiparameter phenotypic screening for endogenous TFEB and TFE3 translocation identifies novel chemical series modulating lysosome function” (Autophagy, 2022).

Legend:
Set-up in all cases: method as in original PKIS2 published data
[1] = biological target: T1, kinases (KINOMEscan panel) (Homo sapiens, UniProt Q8TD19); conditions: NEK9; Published KINOMEscan; ref original PKIS2 published data; cited from earlier work
T1 sequence (Q8TD19 1-979): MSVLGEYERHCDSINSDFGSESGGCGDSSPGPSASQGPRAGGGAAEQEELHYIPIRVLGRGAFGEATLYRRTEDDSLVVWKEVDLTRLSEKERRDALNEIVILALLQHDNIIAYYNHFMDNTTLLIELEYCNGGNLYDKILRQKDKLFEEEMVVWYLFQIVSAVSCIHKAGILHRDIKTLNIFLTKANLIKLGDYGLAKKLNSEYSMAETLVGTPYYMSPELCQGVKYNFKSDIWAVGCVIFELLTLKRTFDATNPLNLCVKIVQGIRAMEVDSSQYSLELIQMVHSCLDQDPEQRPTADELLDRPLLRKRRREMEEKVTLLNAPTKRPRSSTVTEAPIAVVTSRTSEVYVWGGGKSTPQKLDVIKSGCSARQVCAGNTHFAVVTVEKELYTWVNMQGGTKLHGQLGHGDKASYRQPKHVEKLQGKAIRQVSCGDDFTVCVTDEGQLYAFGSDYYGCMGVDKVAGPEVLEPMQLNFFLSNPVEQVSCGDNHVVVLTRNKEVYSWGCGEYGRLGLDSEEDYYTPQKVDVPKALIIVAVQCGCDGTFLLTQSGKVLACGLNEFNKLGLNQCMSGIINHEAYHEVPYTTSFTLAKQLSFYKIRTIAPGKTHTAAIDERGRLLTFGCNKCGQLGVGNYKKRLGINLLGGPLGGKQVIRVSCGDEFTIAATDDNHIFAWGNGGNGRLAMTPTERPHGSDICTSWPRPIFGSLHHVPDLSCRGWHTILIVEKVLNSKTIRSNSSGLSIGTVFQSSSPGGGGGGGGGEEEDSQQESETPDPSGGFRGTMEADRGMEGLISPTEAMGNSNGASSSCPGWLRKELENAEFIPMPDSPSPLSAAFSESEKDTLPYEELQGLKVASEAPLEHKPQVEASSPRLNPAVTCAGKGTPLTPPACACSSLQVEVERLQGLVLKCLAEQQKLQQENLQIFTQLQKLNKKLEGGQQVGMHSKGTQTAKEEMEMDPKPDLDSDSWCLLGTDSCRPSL

[2] = biological target: kinases (KINOMEscan panel) (Homo sapiens, UniProt P14616); conditions: INSRR; Published KINOMEscan; ref original PKIS2 published data; cited from earlier work
Chain of kinases (KINOMEscan panel) (Homo sapiens, UniProt P14616) (P14616 27-1297): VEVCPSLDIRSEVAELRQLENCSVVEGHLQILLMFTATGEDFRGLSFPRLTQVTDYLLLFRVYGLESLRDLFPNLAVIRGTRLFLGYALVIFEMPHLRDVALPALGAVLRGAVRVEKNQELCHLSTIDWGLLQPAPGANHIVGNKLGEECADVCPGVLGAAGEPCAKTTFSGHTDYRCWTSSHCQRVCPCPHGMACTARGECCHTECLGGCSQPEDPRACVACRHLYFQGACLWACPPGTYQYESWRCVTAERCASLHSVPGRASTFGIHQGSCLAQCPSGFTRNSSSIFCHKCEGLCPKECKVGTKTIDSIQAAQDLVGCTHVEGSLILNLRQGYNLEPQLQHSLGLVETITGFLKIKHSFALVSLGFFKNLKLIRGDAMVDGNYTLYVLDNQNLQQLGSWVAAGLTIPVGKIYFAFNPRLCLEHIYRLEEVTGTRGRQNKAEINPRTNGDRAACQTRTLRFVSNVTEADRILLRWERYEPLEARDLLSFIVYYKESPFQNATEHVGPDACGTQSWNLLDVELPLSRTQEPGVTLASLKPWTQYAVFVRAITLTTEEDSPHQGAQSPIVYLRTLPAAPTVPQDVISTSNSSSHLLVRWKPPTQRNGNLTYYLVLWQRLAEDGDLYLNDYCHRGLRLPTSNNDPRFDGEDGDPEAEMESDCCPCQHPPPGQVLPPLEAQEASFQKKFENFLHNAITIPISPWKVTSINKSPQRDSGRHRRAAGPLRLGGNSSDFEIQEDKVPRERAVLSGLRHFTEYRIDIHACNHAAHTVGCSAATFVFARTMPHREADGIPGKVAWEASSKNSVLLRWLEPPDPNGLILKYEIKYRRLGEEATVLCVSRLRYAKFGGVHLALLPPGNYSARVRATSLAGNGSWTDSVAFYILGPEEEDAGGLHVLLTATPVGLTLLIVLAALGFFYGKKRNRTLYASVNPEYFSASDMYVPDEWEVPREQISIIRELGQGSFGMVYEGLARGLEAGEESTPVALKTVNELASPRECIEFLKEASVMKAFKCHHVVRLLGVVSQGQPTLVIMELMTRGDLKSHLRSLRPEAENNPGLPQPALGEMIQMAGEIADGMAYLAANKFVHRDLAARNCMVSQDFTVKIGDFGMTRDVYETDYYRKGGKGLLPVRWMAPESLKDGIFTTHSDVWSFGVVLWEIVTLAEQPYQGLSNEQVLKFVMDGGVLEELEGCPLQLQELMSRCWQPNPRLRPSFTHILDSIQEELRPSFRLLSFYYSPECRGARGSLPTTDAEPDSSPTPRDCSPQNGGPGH

[3] = biological target: kinases (KINOMEscan panel) (Homo sapiens, UniProt P42338); conditions: PIK3CB; Published KINOMEscan; ref original PKIS2 published data; cited from earlier work
Chain of kinases (KINOMEscan panel) (Homo sapiens, UniProt P42338) (P42338 whole entry): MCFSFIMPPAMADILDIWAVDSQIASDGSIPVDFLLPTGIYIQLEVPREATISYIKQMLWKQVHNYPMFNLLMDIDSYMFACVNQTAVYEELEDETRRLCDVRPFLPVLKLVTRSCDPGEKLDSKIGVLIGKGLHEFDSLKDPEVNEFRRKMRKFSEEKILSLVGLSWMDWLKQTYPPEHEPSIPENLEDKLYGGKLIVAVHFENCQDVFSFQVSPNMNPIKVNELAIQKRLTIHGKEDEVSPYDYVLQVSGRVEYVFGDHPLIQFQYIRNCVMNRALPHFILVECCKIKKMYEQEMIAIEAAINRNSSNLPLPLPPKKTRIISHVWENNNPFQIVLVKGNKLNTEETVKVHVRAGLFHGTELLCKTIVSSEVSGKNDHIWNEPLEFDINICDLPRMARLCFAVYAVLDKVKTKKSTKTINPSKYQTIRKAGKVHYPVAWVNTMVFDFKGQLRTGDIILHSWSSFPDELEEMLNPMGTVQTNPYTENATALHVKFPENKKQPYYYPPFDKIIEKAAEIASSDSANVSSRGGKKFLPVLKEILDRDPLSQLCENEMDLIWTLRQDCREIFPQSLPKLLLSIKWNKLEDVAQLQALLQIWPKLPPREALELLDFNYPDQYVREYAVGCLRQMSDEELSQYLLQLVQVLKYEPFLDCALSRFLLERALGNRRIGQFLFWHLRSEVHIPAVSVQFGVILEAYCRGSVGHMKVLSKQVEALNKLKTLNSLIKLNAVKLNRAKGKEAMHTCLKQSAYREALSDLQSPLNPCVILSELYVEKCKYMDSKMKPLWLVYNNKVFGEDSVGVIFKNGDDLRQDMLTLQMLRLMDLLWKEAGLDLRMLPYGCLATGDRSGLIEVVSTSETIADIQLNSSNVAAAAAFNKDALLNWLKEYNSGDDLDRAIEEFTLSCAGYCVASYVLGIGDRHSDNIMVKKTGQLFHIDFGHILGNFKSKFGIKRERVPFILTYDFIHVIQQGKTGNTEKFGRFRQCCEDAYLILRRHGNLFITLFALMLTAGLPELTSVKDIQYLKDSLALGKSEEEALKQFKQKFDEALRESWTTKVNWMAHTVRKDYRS

[4] = biological target: kinases (KINOMEscan panel) (Homo sapiens, UniProt Q02779); conditions: kinase MAP3K10; Published KINOMEscan; ref original PKIS2 published data; cited from earlier work
Chain of kinases (KINOMEscan panel) (Homo sapiens, UniProt Q02779) (Q02779 whole entry): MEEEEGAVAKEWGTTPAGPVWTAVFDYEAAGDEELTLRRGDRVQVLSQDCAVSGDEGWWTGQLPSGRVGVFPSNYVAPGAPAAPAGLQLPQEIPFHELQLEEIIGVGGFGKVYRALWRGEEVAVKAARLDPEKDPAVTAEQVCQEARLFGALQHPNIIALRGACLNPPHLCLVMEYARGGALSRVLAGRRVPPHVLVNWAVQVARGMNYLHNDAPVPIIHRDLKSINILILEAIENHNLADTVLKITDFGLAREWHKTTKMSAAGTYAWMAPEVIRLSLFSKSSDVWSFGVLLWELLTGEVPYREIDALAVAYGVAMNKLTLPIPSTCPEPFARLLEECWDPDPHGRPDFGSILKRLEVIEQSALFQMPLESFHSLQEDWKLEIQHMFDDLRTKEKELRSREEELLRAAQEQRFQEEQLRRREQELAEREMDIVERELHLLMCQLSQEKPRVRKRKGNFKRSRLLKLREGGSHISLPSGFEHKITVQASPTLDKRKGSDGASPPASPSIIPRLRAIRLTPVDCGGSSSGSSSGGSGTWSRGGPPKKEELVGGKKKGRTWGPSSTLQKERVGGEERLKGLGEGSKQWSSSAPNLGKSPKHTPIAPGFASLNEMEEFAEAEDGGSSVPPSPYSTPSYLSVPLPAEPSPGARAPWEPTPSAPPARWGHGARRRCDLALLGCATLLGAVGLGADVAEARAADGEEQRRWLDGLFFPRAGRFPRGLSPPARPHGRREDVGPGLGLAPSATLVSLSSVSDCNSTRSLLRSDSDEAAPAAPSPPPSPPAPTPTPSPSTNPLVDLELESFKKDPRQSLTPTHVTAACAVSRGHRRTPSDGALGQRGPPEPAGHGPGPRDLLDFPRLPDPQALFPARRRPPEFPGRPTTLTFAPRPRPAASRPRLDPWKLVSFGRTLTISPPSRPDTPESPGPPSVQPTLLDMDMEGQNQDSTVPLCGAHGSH

[5] = biological target: T2, kinases (KINOMEscan panel) (Homo sapiens, UniProt Q8IVH8); conditions: Published KINOMEscan; ref original PKIS2 published data; cited from earlier work
T2 sequence (Q8IVH8 1-894): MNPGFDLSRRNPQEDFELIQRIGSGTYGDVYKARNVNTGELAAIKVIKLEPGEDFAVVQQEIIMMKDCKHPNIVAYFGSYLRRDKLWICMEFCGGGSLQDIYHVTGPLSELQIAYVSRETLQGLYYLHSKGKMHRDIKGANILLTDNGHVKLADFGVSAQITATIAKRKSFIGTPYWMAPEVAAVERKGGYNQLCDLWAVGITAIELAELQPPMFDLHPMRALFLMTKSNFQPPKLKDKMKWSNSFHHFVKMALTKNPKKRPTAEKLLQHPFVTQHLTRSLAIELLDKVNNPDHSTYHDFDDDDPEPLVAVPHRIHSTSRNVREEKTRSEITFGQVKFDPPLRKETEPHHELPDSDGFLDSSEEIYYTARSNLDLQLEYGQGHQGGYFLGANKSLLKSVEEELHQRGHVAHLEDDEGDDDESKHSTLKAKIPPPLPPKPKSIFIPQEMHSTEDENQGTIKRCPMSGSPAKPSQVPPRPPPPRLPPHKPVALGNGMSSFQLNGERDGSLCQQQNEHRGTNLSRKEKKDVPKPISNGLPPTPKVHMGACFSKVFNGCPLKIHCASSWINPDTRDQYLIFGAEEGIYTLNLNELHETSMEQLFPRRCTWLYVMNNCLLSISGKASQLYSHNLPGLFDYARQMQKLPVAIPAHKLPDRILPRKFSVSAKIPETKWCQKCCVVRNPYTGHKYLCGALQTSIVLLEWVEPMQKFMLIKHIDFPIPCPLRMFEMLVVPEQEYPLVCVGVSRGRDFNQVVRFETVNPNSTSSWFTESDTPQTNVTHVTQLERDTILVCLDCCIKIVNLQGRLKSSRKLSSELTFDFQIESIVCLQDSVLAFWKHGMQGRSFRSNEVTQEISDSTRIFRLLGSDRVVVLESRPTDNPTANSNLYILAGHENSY

[6] = biological target: T3, kinases (KINOMEscan panel) (Homo sapiens, UniProt Q9UBE8); conditions: NLK; Published KINOMEscan; ref original PKIS2 published data; cited from earlier work
T3 sequence (Q9UBE8 1-527): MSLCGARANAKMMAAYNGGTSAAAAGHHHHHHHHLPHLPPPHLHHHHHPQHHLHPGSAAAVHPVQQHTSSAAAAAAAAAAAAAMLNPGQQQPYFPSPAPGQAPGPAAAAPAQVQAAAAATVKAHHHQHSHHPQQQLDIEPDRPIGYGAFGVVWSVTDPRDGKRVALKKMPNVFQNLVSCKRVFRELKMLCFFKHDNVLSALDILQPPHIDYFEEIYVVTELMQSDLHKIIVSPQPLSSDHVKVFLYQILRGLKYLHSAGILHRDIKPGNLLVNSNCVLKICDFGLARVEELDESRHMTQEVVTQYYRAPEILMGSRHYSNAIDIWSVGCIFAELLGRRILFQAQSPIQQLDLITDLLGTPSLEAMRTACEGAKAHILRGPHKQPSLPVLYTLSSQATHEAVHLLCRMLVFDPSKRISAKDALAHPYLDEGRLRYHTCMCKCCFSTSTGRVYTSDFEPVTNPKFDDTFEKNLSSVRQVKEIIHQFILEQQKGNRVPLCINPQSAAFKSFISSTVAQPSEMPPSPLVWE

[7] = biological target: kinases (KINOMEscan panel) (Homo sapiens, UniProt Q8TDR2); conditions: STK35; Published KINOMEscan; ref original PKIS2 published data; cited from earlier work
Chain of kinases (KINOMEscan panel) (Homo sapiens, UniProt Q8TDR2) (Q8TDR2 whole entry): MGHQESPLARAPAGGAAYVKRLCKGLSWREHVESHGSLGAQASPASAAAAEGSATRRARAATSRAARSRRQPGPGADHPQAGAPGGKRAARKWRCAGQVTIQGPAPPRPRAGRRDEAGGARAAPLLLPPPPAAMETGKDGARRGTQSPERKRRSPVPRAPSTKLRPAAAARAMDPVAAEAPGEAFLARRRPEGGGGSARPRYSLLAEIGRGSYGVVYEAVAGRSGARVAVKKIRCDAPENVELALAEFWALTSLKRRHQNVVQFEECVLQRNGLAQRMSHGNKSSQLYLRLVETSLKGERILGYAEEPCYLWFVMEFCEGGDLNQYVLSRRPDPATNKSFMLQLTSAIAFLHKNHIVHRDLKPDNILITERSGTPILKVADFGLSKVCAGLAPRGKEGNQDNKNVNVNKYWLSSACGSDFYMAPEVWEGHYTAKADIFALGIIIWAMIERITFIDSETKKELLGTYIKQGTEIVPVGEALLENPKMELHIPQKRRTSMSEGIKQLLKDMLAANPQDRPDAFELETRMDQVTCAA

Cc1cccc(-c2nc(Nc3ccncc3)c3ccccc3n2)n1 [NK215]
KINOMEscan NEK9 [1]: 0
KINOMEscan INSRR [2]: 0
KINOMEscan PIK3CB [3]: 0
KINOMEscan MAP3K10 [4]: 7
KINOMEscan MAP4K3 [5]: 0
KINOMEscan NLK [6]: 47
KINOMEscan STK35 [7]: 0
